Test results taken from patent US20210163453A1, “DERIVATIVES OF PAPAVERINE THAT ARE EFFECTIVE HYPOXIC TUMOR RADIOSENSITIZERS” (Ohio State Innovation Foundation, priority 2018, published 2021).
“Also recorded” adds a separate entry of the source.

Assays:
mitochondrial complex 1 = experiment: Seahorse OCR inhibition of PPV derivatives, normalized to PPV; type: cell-based; settings: Seahorse; for Inhibitory activity OCR % of PPV: OCR inhibition at 10 μM concentration, normalized to PPV
Protocol: FIGS. 7A-7D show OCR and cellular toxicity data. […]. Bars represent mean OCR and PDE10 inhibitory activities from at least 5 (OCR) or 3 (PDE) replicates. All experiments were repeated at least twice. […] Values are mean+−SEM.
(§1) Seahorse analysis of the OCR. Oxygen consumption rate (OCR) was measured using Seahorse XF96 Flux Analyzer (Agilent Technologies). The cells were seeded to attach overnight, wells were washed with pre-warmed XF Calibrant (Agilent Technologies) and the replaced with unbuffered Assay Medium (pH 7.4, 5 mM glucose, 1 mM L-glutamine). The plates were incubated at 37° C. in a CO2-free incubator for 2 hours prior to assay. For succinate rescue assay, cells were permeabilized using XF Plasma Membrane Permeabilizer Reagent (XF PMP, Agilent Technologies) according to the manufacturer's instructions. The OCR rate was measured in 1× Mitochondrial Assay Solution (MAS) (70 mM sucrose, 220 mM mannitol, 10 mM KH2PO4, 5 mM MgCl2, 2 mM Hepes, 0.6% (w/v) fatty acid-free BSA and 1 mM EGTA; pH 7.4). After baseline oxygenation was established, 1 μM rotenone or 10 μM PPV was injected at time A, followed by 5 mM succinate at time B. Error bars represent standard deviation. For the washout experiment, EO771 cells were seeded overnight, then treated with 10 μM PPV or 1 μM rotenone 3 hours prior to OCR measurement. Media was replaced 1 and 2 hours before measurement and OCR reported.
Because PPV's effect on mitochondrial function is independent of cAMP levels it was reasoned that there are two activities in PPV, one inhibiting complex 1 and one inhibiting PDE10A that may reside in different parts of the molecule. The structure activity relationship of PPV relative to two assays was assessed: inhibition of cellular OCR by Seahorse, and inhibition of PDE10A by purified enzyme activity in multiwell plate (PDE10A activity assay kit, BPS Bioscience). Because PPV can compete with rotenone as complex 1 inhibitors, it was reasoned that they may be binding the same site and therefore the structures would be similar relative to the mitochondrial binding target. […] Because the top was a planar structure similar to that of rotenone, and they compete with each other for the same binding pocket on complex 1 (FIG. 10) the lower portion of the molecule and how it may resemble rotenone were investigated in more detail. It was established that flexible linkage was preferred for mitochondrial activity and bulky adducts to the lower benzene ring may block it (FIG. 7C). […] These lead compounds were synthesized from commercial precursors and purified on silica gel column. Structures were confirmed by ^1H NMR and found to be >95% pure by HPLC.

PDE10A = target: T1, PDE10A (Homo sapiens, UniProt Q9Y233); experiment: PDE10A enzymatic assay (PDE10A activity assay kit, BPS Bioscience); type: biochemical; settings: for Inhibitory activity PDE10A % of PPV: PDE10A inhibition at 1 μM, normalized to PPV
T1 construct: purchased BPS Bioscience
Protocol: FIGS. 7A-7D show OCR and cellular toxicity data. […] Bars represent mean OCR and PDE10 inhibitory activities from at least 5 (OCR) or 3 (PDE) replicates. All experiments were repeated at least twice. […] Values are mean+−SEM. […]
The structure activity relationship of PPV relative to two assays was assessed: inhibition of cellular OCR by Seahorse, and inhibition of PDE10A by purified enzyme activity in multiwell plate (PDE10A activity assay kit, BPS Bioscience). […] These lead compounds were synthesized from commercial precursors and purified on silica gel column.

A549 cells = experiment: Seahorse OCR in A549 cells (dose response, IC50, washout); type: cell-based, Human; settings: 1 μM rotenone, media replaced
[1] = system: A549 NDUFV1 KO NDI1 cells; type: cell-based, Human; settings: 10 μM papaverine or 1 μM rotenone
[2] = system: oxygen consumption (mitochondrial function); experiment: Seahorse XF analysis of oxygen consumption in vitro, cell line not stated; type: cell-based
Protocol: as §1

T1 sequence (Q9Y233 267-1055): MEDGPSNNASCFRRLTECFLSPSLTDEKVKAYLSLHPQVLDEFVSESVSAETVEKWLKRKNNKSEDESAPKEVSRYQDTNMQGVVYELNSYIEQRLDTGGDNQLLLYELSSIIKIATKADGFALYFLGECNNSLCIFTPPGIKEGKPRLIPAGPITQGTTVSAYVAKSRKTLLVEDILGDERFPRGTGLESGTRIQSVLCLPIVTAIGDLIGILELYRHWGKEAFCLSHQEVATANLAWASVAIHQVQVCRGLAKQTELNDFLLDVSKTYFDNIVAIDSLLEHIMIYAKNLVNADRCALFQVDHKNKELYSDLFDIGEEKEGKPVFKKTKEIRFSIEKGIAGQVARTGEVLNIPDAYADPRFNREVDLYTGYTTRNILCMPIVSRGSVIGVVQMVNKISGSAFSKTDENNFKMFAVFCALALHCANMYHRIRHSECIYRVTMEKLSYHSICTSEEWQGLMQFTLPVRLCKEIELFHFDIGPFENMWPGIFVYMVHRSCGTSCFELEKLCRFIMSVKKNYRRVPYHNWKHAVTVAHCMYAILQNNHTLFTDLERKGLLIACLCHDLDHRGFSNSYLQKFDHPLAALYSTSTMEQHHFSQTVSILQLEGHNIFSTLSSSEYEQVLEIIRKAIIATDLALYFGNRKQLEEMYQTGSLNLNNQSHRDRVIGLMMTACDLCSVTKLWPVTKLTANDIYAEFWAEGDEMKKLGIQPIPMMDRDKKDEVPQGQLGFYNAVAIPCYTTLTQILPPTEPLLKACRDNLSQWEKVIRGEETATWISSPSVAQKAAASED

| Inhibitory activity PDE10A % of PPV (PDE10A) | Compound | Inhibitory activity OCR % of PPV (mitochondrial complex 1) | further results |
| --- | --- | --- | --- |
|  | COc1cc2ccnc(Cc3ccc(C)c(C)c3)c2cc1OC | 17.43 % of PPV |  |
| 67.90 % of PPV | COc1cc2ccnc(C(O)c3ccc4c(c3)OCO4)c2cc1OC (centres unmarked) | 12.96 % of PPV |  |
| 50.92 % of PPV | COc1cc2ccnc(C(=O)c3cc(C)c(OC)c(C)c3)c2cc1OC | 0 % of PPV |  |
| 63.39 % of PPV | COc1cc2ccnc(C(=O)c3cc(OC)c(OC)c(OC)c3)c2cc1OC | 13.63 % of PPV |  |
| 26.28 % of PPV | COc1cc2ccnc(C(=O)c3ccccc3)c2cc1OC | 0 % of PPV |  |
| 69.54 % of PPV | COc1cc2ccnc(Cc3ccc4c(c3)OCO4)c2cc1OC | 11.11 % of PPV |  |
| 59.69 % of PPV | C=C(C)COc1c(C)cc(Cc2nccc3cc(OC)c(OC)cc23)cc1C | 74.81 % of PPV |  |
| 73.33 % of PPV | C=C(C)COc1c(C)cc(C(O)c2nccc3cc(OC)c(OC)cc23)cc1C (centres unmarked) | 84.42 % of PPV |  |
| 51.12 % of PPV | COc1cc2ccnc(C(=O)c3ccc4c(c3)OCO4)c2cc1OC | 5.55 % of PPV |  |
| 69.55 % of PPV | COc1ccc(-c2nccc3cc(OC)c(OC)cc23)cc1OC | 3.64 % of PPV |  |
|  | Cc1cccc(CN2CCN(C(c3ccccc3)c3ccc(Cl)cc3)CC2)c1 (centres unmarked) [meclizine] |  | inhibition of oxygen consumption / mitochondrial function in vitro [2]: effective at inhibiting oxygen consumption |
| 0 % of PPV | COc1cc2ccnc(C(O)c3cc(C)cc(C)c3)c2cc1OC (centres unmarked) | 23.40 % of PPV |  |
| 17.69 % of PPV | COc1cc2ccnc(C(=O)c3cc(C(F)(F)F)cc(C(F)(F)F)c3)c2cc1OC | 0 % of PPV |  |
|  | COc1cc2ccnc(C(O)c3ccc(C)c(C)c3)c2cc1OC (centres unmarked) | 22.69 % of PPV |  |
|  | COc1cc2ccnc(C(=O)c3ccc(C)c(C)c3)c2cc1OC | 9.64 % of PPV |  |
| 35.44 % of PPV | COc1ccc(C(O)c2nccc3cc(OC)c(OC)cc23)cc1 (centres unmarked) | 70.45 % of PPV |  |
| 10.28 % of PPV | COc1cc2ccnc(Cc3cc(C(F)(F)F)cc(C(F)(F)F)c3)c2cc1OC | 33.4 % of PPV |  |
|  | [H]/N=C(/N)N/C(=N/[H])NCCc1ccccc1 [phenformin] |  | inhibition of oxygen consumption / mitochondrial function in vitro [2]: effective at inhibiting oxygen consumption |
| 20.16 % of PPV | COc1ccc(CCc2nccc3cc(OC)c(OC)cc23)cc1OC | 5.94 % of PPV |  |
|  | CN(C)C(=N)N=C(N)N [Metformin] |  | inhibition of oxygen consumption / mitochondrial function in vitro [2]: effective at inhibiting oxygen consumption |
| 0 % of PPV | COc1cc2ccnc(C(=O)c3cccc4ccccc34)c2cc1OC | 31.91 % of PPV |  |
| 37.27 % of PPV | COc1cc2c(cc1OC)C(Cc1cc(C)c(OC)c(C)c1)=NCC2 | 14.81 % of PPV |  |

| Inhibitory activity PDE10A % of PPV (PDE10A) | Compound | Inhibitory activity OCR % of PPV (mitochondrial complex 1) | further results |
| --- | --- | --- | --- |
| 29.18 % of PPV | COc1cc2ccnc(C(O)c3cc(C)c(OC)c(C)c3)c2cc1OC (centres unmarked) | 10.35 % of PPV |  |
| 17.18 % of PPV | COc1ccc(OCc2nccc3cc(OC)c(OC)cc23)cc1OC | 72.05 % of PPV |  |
| 72.86 % of PPV | COc1cc2ccnc(C(O)c3cc(OC)c(OC)c(OC)c3)c2cc1OC (centres unmarked) | 34.09 % of PPV |  |
| 29.13 % of PPV | COc1cc2ccnc(Cc3cc(C)c(OCC(C)C)c(C)c3)c2cc1OC | 72.88 % of PPV |  |
| 23.60 % of PPV | COc1cc2ccnc(C(O)c3ccccc3)c2cc1OC (centres unmarked) | 12.07 % of PPV |  |
| 0 % of PPV | COc1cc2ccncc2cc1OC [DMIQ, reference compound] | 0 % of PPV | activity in PDE10A assay (PDE10A; purified enzyme): inactive; activity in cellular OCR assay (mitochondrial complex 1): inactive |
| 37.37 % of PPV | COc1cc2ccnc(Cc3cc(OC)c(OC)c(OC)c3)c2cc1OC | 34.09 % of PPV |  |
|  | COc1cc2ccnc(COc3cccc4ccccc34)c2cc1OC | 14.19 % of PPV |  |
| 30.52 % of PPV | COc1cc2ccnc(C(=O)c3cc(C)cc(C)c3)c2cc1OC | 9.26 % of PPV |  |
| 64.65 % of PPV | COc1cc2ccnc(Cc3cc(C)c(OC)c(C)c3)c2cc1OC | 91.18 % of PPV |  |
| 24.24 % of PPV | COc1cc2ccnc(C(O)c3cccc4ccccc34)c2cc1OC (centres unmarked) | 18 % of PPV |  |
| 12.77 % of PPV | COc1cc2c(cc1OC)C(Cc1ccc3c(c1)OCO3)=NCC2 | 5.55 % of PPV |  |
| 79.93 % of PPV | COc1ccc(Cc2nccc3cc(OC)c(OC)cc23)cc1 | 36.36 % of PPV |  |
| 74.38 % of PPV | C=C(C)COc1c(C)cc(C(=O)c2nccc3cc(OC)c(OC)cc23)cc1C | 15.51 % of PPV |  |
| 70.84 % of PPV | COc1cc2ccnc(C(O)c3ccc4ccccc4c3)c2cc1OC (centres unmarked) | 29.26 % of PPV |  |
| 100 % of PPV | COc1cc2ccnc(Cc3ccc4ccccc4c3)c2cc1OC | 35.99 % of PPV |  |
|  | COc1ccccc1OCC(O)CN1CCN(CC(=O)Nc2c(C)cccc2C)CC1 (centres unmarked) [ranolazine] |  | inhibition of oxygen consumption / mitochondrial function in vitro [2]: effective at inhibiting oxygen consumption |
| 65.88 % of PPV | COc1ccc(C(=O)c2nccc3cc(OC)c(OC)cc23)cc1 | 29.55 % of PPV |  |
| 85.02 % of PPV | COc1cc2ccnc(Cc3cc(C)c(O)c(C)c3)c2cc1OC | 5.86 % of PPV |  |
| 16.58 % of PPV | COc1cc2ccnc(C(O)c3cc(C(F)(F)F)cc(C(F)(F)F)c3)c2cc1OC (centres unmarked) | 48.27 % of PPV |  |
| 0 % of PPV | COc1cc2ccnc(C(=O)c3ccc4ccccc4c3)c2cc1OC | 4.34 % of PPV |  |
| 40.00 % of PPV | COc1cc2c(cc1OC)C(Cc1cc(C)cc(C)c1)=NCC2 | 30.09 % of PPV |  |

| Compound | Inhibitory activity PDE10A % of PPV (PDE10A) | Inhibitory activity OCR % of PPV (mitochondrial complex 1) | further results |
| --- | --- | --- | --- |
| C=C(C)[C@H]1Cc2c(ccc3c2O[C@@H]2COc4cc(OC)c(OC)cc4[C@@H]2C3=O)O1 [rotenone] | 0 % of PPV | 193 % of PPV | reversibility of OCR inhibition in washout (A549 cells): no restoration in 3 hours; also recorded: irreversible inhibitor; response of mitochondria (OCR) to drug [1]: resistant |
